Laboratory results: patent US20240239794A1, “PKC-Theta Modulators” (Exscientia AI Limited, priority 2021, published 2024)
Like-named read-outs stand apart in the source and are kept apart here.

Legend:
[1] = target: Recombinant human PKC-delta (His-tagged 345-676) (Homo sapiens (Human), UniProt Q05655); assay: PKC-delta inhibition assay (HTRF KinEASE kit), PKC-theta/PKC-delta selectivity; assay type: biochemical; conditions: ratio; for PKC-theta/PKC-delta selectivity: PKC-theta over PKC-delta, HTRF assays; for PKC-theta/PKC-delta selectivity (binned): binned A to G
Protocol: (§1) PKC-theta and PKC-delta biochemical activities were measured using the PKC-theta HTRF KinEASEkit kit, according to manufacturer's instructions (Cisbio, catalogue number 61ST1PEJ). Briefly, the kinase buffer component of the kit was supplemented with 10 mM MgCl2, 1 mM DTT and 0.1% Tween 20. For the PKC-theta assay, STK substrate and ATP were added to provide a final assay concentration of 525 nM and 6.5 μM, respectively. For the PKC-delta assay, STK substrate and ATP were added to provide a final assay concentration of 243 nM and 5.7 μM, respectively. The streptavidin_XL665 and STK antibody-cryptate detection reagents were mixed according to the manufacturer's instructions. Test compounds were diluted in DMSO in a series of 10 semi-log step doses; 10 nL of each compound dose were dispensed in 384 well plates. Recombinant human PKC-theta (His-tagged 362-706) or PKC-delta (His-tagged 345-676) was diluted into kinase buffer to provide a final assay concentration of 10 ng/ml and added to the test compound for 30 minutes on ice. The reaction was started by addition of the substrate and ATP and incubated at 25° C. for 30 minutes or 20 minutes for the PKC-theta and PKC-delta assays, respectively. The detection reagents were added, and the plate was incubated in the dark for 2 hours. Fluorescence was measured on an Envision 2103 plate reader with optical setup for […] in the HTRF mode. The ratio of acceptor and donor emission signals was calculated for each well. Percent inhibition values were calculated from the HTRF ratios at different doses and fitted to a 4-parameter logistic curve to determine IC50 values (see Table 1).

[2] = target: Recombinant human PKC-theta (His-tagged 362-706) (Homo sapiens (Human), UniProt Q04759); assay: PKC-theta inhibition assay (HTRF KinEASE kit); assay type: biochemical; conditions: ATP 6.5 μM
Protocol: as §1

[3] = test system: IL-2 secretion by human effector memory T cells (TEM); assay: Effector memory T cells IL-2 release assay; assay type: cell-based; conditions: T-cell, human CD4+ TEM cells, CD3/CD28 bead stimulation, 24 h
Protocol: Test compound-mediated inhibition of NFκB signalling in T cells was assessed by quantification of the IL-2 secretion by human effector memory T cells (TEM) upon treatment and stimulation. Human TEM cells were isolated from buffy coats of healthy donors obtained from the French blood bank. First, peripheral blood mononuclear cells (PBMC) were purified from buffy coats diluted 1:1 with DPBS (Gibco, cat #14190-094) by Pancoll (PAN BIOTECH, cat #P04-60500) density gradient centrifugation at 400×g for 20 minutes. TEM cells were further enriched by negative immuno-magnetic cell sorting using a human CD4+ Effector Memory T Cell Isolation Kit (Miltenyi, cat #130-094-125) according to the manufacturer's instructions. Aliquots of 3×10E6 purified TEM cells were kept frozen in Cryo-SFM medium (PromoCell, cat #C-29912) in gas phase nitrogen until used. Cell purity was verified by flow cytometry analysis of 200 000 PFA-fixed cells previously labelled with monoclonal antibodies anti-CD4-PerCP-Cy5.5 (BD Pharmigen, cat #332772), anti-CD8-V500 (BD Biosciences, cat #561617), anti-CD14-Pacific Blue (Biolegend, cat #325616), anti-CD45 RA-FITC (Biolegend, cat #304106) and anti-CCR7-APC (in CD4+ Effector Memory T Cell Isolation Kit, Miltenyi, cat #130-094-125).
TEM cells were resuspended in complete RPMI medium composed of: RPMI 1640 (Gibco, cat #31870-025), 10% heat inactivated fetal bovine serum (Sigma, cat #F7524), 2 mM GlutaMAX (Gibco, cat #35050-038), 1 mM sodium pyruvate 100× (Gibco, cat #11360-039), 1% MEM non-essential amino acids solution (Gibco, cat #11140-035) and 100 U/mL penicillin, 100 µg/mL streptomycin (Sigma-Aldrich, cat #11074440001). 5,000 cells per well were plated onto flat clear bottom 384 well plates (Corning, cat #3770). 5,000 Dynabeads Human T-Activator CD3/CD28 (Gibco, cat #11132D) were added to each well for cell stimulation. Finally, 10 doses of test compound, originally prepared in DMSO by serial semi-log step dilution, were also added to cells in triplicate wells. Final DMSO concentration in wells was 0.1% in a total volume of 100 µL complete medium. Plates were incubated for 24 h at 37° C. in 5% CO2 atmosphere. After incubation, cell suspensions were centrifuged at 400×g and culture supernatants were recovered and stored at −80° C. Cell viability was assessed by flow cytometry after staining the cells with Fixable Viability Dye eFluor 780 (Invitrogen, cat #65-0865-14). IL-2 levels were determined in cell supernatants using an HTRF human IL-2 detection kit (Cisbio, cat #62HIL02PEH). IL-2 data at the different compound doses were fitted to a 4-parameter logistic curve to determine IC50 values, corresponding to the compound concentration leading to 50% reduction of the maximal IL-2 levels observed in each experiment. Viability data were analysed similarly to exclude cytotoxicity as a cause of IL-2 decrease (see Table 1).

[4] = binned A to H, read-out: PKC-theta HTRF pIC50 (binned) (converted)
[5] = binned A to G, read-out: PKC-theta IL2 pIC50 (binned) (converted)
[6] = read-out: PKC-theta IL2 pIC50 (converted)
[7] = read-out: PKC-theta HTRF pIC50 (converted)

Chain of Recombinant human PKC-theta (His-tagged 362-706) (Q04759 362-706): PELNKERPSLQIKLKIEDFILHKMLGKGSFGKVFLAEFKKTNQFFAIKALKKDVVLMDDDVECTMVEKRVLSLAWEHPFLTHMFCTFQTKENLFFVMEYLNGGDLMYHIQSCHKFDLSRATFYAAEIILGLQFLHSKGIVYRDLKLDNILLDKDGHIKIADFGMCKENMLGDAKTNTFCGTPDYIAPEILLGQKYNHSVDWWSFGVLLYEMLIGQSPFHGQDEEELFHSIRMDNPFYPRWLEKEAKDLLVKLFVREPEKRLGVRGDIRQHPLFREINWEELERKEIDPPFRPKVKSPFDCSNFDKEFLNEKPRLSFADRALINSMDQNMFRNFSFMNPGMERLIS
Chain of Recombinant human PKC-delta (His-tagged 345-676) (Q05655 345-676): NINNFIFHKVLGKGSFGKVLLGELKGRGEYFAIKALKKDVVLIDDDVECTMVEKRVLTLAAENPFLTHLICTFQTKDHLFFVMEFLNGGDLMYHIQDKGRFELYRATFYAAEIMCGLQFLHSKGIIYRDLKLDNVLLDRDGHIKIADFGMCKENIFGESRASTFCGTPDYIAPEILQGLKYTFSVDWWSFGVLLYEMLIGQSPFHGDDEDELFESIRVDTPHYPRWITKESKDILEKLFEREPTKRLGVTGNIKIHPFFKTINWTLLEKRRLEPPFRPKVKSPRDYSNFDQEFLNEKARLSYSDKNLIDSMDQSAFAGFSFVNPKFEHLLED

Structure (SMILES)	PKC-theta/PKC-delta selectivity [1]	PKC-theta/PKC-delta selectivity (binned) [1]	PKC-theta HTRF pIC50 [2]	IC50 [2, 4] [nM]	IC50 [3, 5] [nM]	IC50 [3, 6] [nM]	IC50 [2, 7] [nM]
CCC1(O)C(=O)Nc2nccc(-c3nn(C4(CC#N)CCC4)c4ccccc34)c21 (stereo not drawn) [Example 51]	11	D (D means a ratio of between 10 and 20)	9.3	≤ 1	10 to 31.6	15.8	
CC1(O)C(=O)Nc2nccc(-c3cn([C@H]4CCNC4)c4ccccc34)c21 (stereo partly drawn) [Example 18]	11	D (D means a ratio of between 10 and 20)	7.9	10 to 31.6	316 to 1000	316	
CC1(C)C(=O)Nc2nccc(-c3nn([C@H]4CCNC4)c4cc(F)ccc34)c21 [Example 70]	20	C (C means a ratio of between 20 and 30)	8.1	3.16 to 10	100 to 316	126	
CC1(C)C(=O)Nc2nccc(-c3nn(CC4(F)CCNC4)c4ccccc34)c21 (stereo not drawn) [Example 96]	17	D (D means a ratio of between 10 and 20)	8.7	1 to 3.16	10 to 31.6	25.1	
CC1(O)C(=O)Nc2nccc(-c3nn([C@@H]4CCNC[C@@H]4F)c4ccccc34)c21 (stereo partly drawn) [Example 34]	12	D (D means a ratio of between 10 and 20)	8.8	1 to 3.16	31.6 to 100	39.8	
CC1(C)C(=O)Nc2nccc(-c3nn([C@H]4CCNC[C@@H]4F)c4ccccc34)c21 (racemic) [Example 36]	14	D (D means a ratio of between 10 and 20)	8.3	3.16 to 10	100 to 316	126	
C[C@@]1(O)C(=O)Nc2nccc(-c3nn([C@@H]4CCNC[C@@H]4F)c4ccccc34)c21 (single isomer, unassigned) [Example 50]	11	D (D means a ratio of between 10 and 20)		≤ 1	10 to 31.6	20	0.794
CC1(C)C(=O)Nc2nccc(-c3nn([C@@H]4CCNC4)c4ccccc34)c21 [Example 15]	14	D (D means a ratio of between 10 and 20)	8.6	1 to 3.16	31.6 to 100	39.8	
COC1(C)C(=O)Nc2nccc(-c3nn(CC4(F)CCCNC4)c4ccccc34)c21 (stereo not drawn) [Example 67]	9	E (E means a ratio of between 5 and 10)	7.5	31.6 to 100	316 to 1000	398	
CC[C@@]1(C)C(=O)Nc2nccc(-c3nn([C@H]4CCNC[C@H]4F)c4ccc(F)cc34)c21 (single isomer, unassigned) [Example 99]	105	A (A means a ratio of between 50 and 120)		31.6 to 100	316 to 1000	398	100

Next, values leading:

PKC-theta/PKC-delta selectivity [1]	PKC-theta/PKC-delta selectivity (binned) [1]	PKC-theta HTRF pIC50 [2]	IC50 [2, 4] [nM]	IC50 [3, 5] [nM]	IC50 [3, 6] [nM]	IC50 [2, 7] [nM]	Structure (SMILES)
22	C (C means a ratio of between 20 and 30)	8.5	1 to 3.16	31.6 to 100	63.1		CC1(C)C(=O)Nc2nccc(-c3nn(C4CCNCC4)c4cc(F)ccc34)c21 [Example 112]
9	E (E means a ratio of between 5 and 10)	8.4	3.16 to 10	31.6 to 100	50.1		CC1(C)C(=O)Nc2nccc(-c3nn([C@@H]4CCCNC4)c4ccccc34)c21 [Example 19]
13	D (D means a ratio of between 10 and 20)	8.1	3.16 to 10	100 to 316	100		CC1(C)C(=O)Nc2nccc(-c3nn(C4CCNCC4)c4c(F)cccc34)c21 [Example 32]
11	D (D means a ratio of between 10 and 20)		≤ 1	10 to 31.6	15.8	1	CO[C@]1(C)C(=O)Nc2nccc(-c3nn([C@@H]4CCNC[C@@H]4F)c4ccccc34)c21 (single isomer, unassigned) [Example 90]
15	D (D means a ratio of between 10 and 20)		1 to 3.16	10 to 31.6	31.6	2	C[C@]1(O)C(=O)Nc2nccc(-c3nn(C4CCNCC4)c4ccccc34)c21 (single isomer, unassigned) [Example 28]
15	D (D means a ratio of between 10 and 20)	8.0	3.16 to 10	316 to 1000	316		CC1(C)C(=O)Nc2nccc(-c3nn(C4(CC#N)CCC4)c4ccccc34)c21 [Example 22]
33	B (B means a ratio of between 30 and 50)		100 to 316	316 to 1000	794	316	C[C@@]1(O)C(=O)Nc2nccc(-c3nn(C4(CC#N)COC4)c4ccccc34)c21 (single isomer, unassigned) [Example 48]
12	D (D means a ratio of between 10 and 20)		≤ 1	10 to 31.6	25.1	0.631	C[C@@]1(O)C(=O)Nc2nccc(-c3nn(CC4(F)CCNCC4)c4ccccc34)c21 (single isomer, unassigned) [Example 47]
10	D (D means a ratio of between 10 and 20)		≤ 1	31.6 to 100	50.1	1	CO[C@@]1(C)C(=O)Nc2nccc(-c3nn(CC4(F)CCNCC4)c4ccccc34)c21 (single isomer, unassigned) [Example 78]
